In patent publication US20050037446A1, “Agents that recognize src when phosphorylated at serine 17” (priority 2001, published 2005):

Columns and labels:
[1] = test system: purified catalytic subunit of PKA; assay: PKA kinase assay on membrane-spotted Src peptides, phospho-PKA substrate antibody; format: biochemical; details: 12.5 nM PKA catalytic subunit, 30° C., 30 minutes
Text: A peptide identical to amino acids 9-25 within the N-terminus of wild-type Src (WT) (KDASQRRRSLEPAENVH; SEQ ID NO: 12), which contains the potential PKA phosphorylation site (underlined), was generated using an Auto-Spot Robot ASP 222 (ABiMED, Langenfeld, Germany) and spotted onto a nitrocellulose membrane. Control peptides with serines 12 and/or 17 replaced by alanine (S12A, SEQ ID NO: 13; S17A, SEQ ID NO: 14; and S12AS17A, SEQ ID NO: 15), serine 17 replaced by aspartate (S17D, SEQ ID NO: 16), and arginines at 14-16 replaced by alanine (R14A, SEQ ID NO: 17; • R15A, SEQ ID NO: 18; R16A, SEQ ID NO: 19), as well as peptides designed to both a scrambled (SEQ ID NO: 20) and an unrelated (FLAG) sequence (SEQ ID NO: 21), were also generated and spotted onto the membrane.
Using a method previously described (Tegge et al., Biochen. 34:10569-77, 1995), the membranes were pre-incubated at room temperature (RT) overnight (ON) in buffer containing 20 mM Hepes, pH 7.4, 100 mM NaCl, 2 mM MgCl2, 1 mM EDTA, 1 mM DTI, and 0.2 mg/ml BSA. Membranes were then blocked at 30° C. for one hour in buffer containing 20 mM Hepes, pH 7.4, 100 mM NaCl, 2 mM MgCl2, 1 mM EDTA, 1 mM DTT, and 1 mg/ml BSA and 30 μM cold ATP. […] The membranes were then blocked, probed, and analyzed using chemiluminescence according the manufacturers guidelines for the phospho-PKA substrate antibody. […]

Src = Src autophosphorylation at tyrosine 416 (Western blot); format: cell-based; details: SYF cells
Experimental: To examine the mechanism of cAMP regulation of Src, Src kinase activity was assayed in vivo by monitoring autophosphorylation of Src at tyrosine 416 (Tyr416) using previously disclosed methods (Brown and Cooper, Biochim. Biophys. Acta 1287:121-49, 1996; Martin, Nat. Rev. Mol. Cell. Biol. 2:467-75,2001).
[…] Cell lysates were prepared, and Src immunopreciptiated and analyzed by Western blot for either tyrosine phosphorylation at site 416 (p416Src) using phospho-Src (Tyr416) antibodies (Cell Signaling Technology), Flag-Src, or analyzed by Western blot for either PKA phosphorylation or Src (using Src antibodies, Santa Cruz Biotechnology Inc.), using the methods described above. Alternatively, Flag-Src was immunoprecipitated from the cell lysates and analyzed by Western blot for either Cb1 or Flag-Src.
The activation of wild type Src by Forskolin was confirmed by observing autophosphorylation of Src at Tyr416 and using an in vitro kinase assay. To measure autophosphorylation of Src at Tyr416, SYF cells were transfected with either Flag-Src (WT) or Flag-SrcS17A and treated with Forskolin and PDGF or EGF, as described above. Flag-Src was immunoprecipitated from cell lysates and analyzed by Western blot for either phosphorylation of Src on Tyr416 or the presence of Flag-Src. […]

Src++ and SYF cells = assay: MTT assay for cell proliferation; format: cell-based, mouse; details: for Stimulation of cell growth: SYF cells, 48 hours
Experimental: To determine the effect of Src on cell proliferation, the following protocol was used. Src^++ and SYF cells were serum-starved overnight and plated onto 96 well plates. Cells were then treated with PDGF, EGF, Forskolin, H89, and/or PD98059 (PD, 10 μM, Cal Biochem). Cells were analyzed 48 hours later by MTT assay and data quantified (n=4±S.E.). The MTT assay for cell proliferation was conducted as follows (Schmitt and Stork, Mol. Cell. Biol. 21:3671-83, 2001). Briefly, 2.5 hours prior to lysis, 20 μl of sterile […] MTT (Sigma) was added to the cells and allowed to incubate at 37° C. At the appropriate time, cells were lysed and proteins solubilized in 50% volume/volume H2O and N,N,-dimethylformamide containing 20% SDS, 0.5% of 80% acetic acid, and 0.4% 1M HCL Plates were read using a microplate reader and presented as the difference between optical densities at […].
To quantitate cell proliferation, cells were analyzed 48 hours later by MTT assay (see EXAMPLE 3) and data was quantified (n=4±S.E.). […] Expression of Flag-Src in SYF cells restored Forskolin's ability to inhibit PDGF- and EGF-mediated cell growth.

Rap1 = Rap1 activation affinity assay (GST-RalGDS pull-down), NIH3T3 cells; format: cell-based; details: NIH3T3 cells, 10 μM, five minutes
Experimental: NIH3T3 cells (American Type Culture Collection, ATCC, Manassas, Va.) were cultured in Dulbecco-Modified Eagle Medium (DMEM) plus 10% fetal calf serum, penicillin/streptomycin, and L-glutamine at 37° C. in 5% CO2. Cells were maintained in serum-free DMEM for 16 hours at 37° C. in 5% CO2 prior to treatment. NIH3T3 cells were trasfected with Flag-Rap1 (see Vossler et al., Cell, 89:73-82, 1997) or stimulated with Forskolin (10 μM, Cal Biochem, Riverside, Calif.) for five minutes. Forskolin treated cells received either a pretreatment or post-treatment with 10 μM N-[2(Bromocimamylamino) ethyl]-5-isoquinolinesulfonamide (H89) (Cal Biochem, Riverside, Calif.) for 20 minutes.
Cells were co-transfected with Flag-Rap1 at seventy to eighty percent confluency with the cDNA using a Lipofectamine 2000 kit (Gibco BRL, Rockville, Md.) according to the manufacturer's instructions. The control vector, pcDNA3 (Invitrogen Corp.), was included in each set of transfections to assure that each plate received the same amount of DNA. Following transfection, cells were allowed to recover in serum containing media for 24 hours. Cells were then starved overnight in serum-free DMEM before treatment and lysis.
After treatment, cells were lysed in ice-cold lysis buffer (50 mM Tris-HCL (pH 8.0), 10% glycerol, 1% nonidet P40, 200 mM NaCl, 2.5 mM MgCl2, 1 mM phenylmethylsulfonyl fluoride, 1 μM leupeptin, 10 μln soybean trypsin inhibitor, 10 mM NaF, 0.1 μM aprotinin, and 1 mM NaVO4). Nuclei and cytoskeleton were removed from equivalent amounts of lysate by centrifugation at 5,000 rpm for five minutes. The supernatant was centrifuged at 100,000×g for one hour at 4° C. and, the resultant membrane was resuspended in cold lysis buffer. Aliquots of the membrane fraction were analyzed for the presence of C3G by Western blotting. The cytosolic or membrane fractions of treated or untreated cells were mixed with equivalent amounts of lysates from untreated Flag-Rap1 transfected cells. The mixture was incubated at 37° C. for five minutes and equal amounts of lysate were analyzed using the Rap1 activation assay to monitor Flag-Rap 1 activation by Gst-RalGDS.
The Rap1 activation affinity assay was performed as follows. A GST fusion protein of the Rap1-binding domain of RalGDS (GST-RalGDS, Dr. Bos, Utrecht University, The Netherlands) was expressed in E. coli following induction by isopropyl-1thio-β-D-galactopyranoside. Active Rap1 was isolated as previously described (Franke et al., EMBO J. 16:252-9, 1997). Briefly, equivalent amounts of supernatants (500 μg) were incubated with GST-RalGDS-Rap1 binding domain coupled to glutathione beads. Following a one hour incubation at 4° C., beads were pelleted and rinsed threes times with ice-cold lysis buffer. […] Proteins were detected using enhanced chemiluminescence.

[2] = test system: T1, Src 9-25 control peptide S12A
T1 sequence: KDAAQRRRSLEPAENVH

[3] = test system: T2, peptide identical to amino acids 9-25 within the N-terminus of wild-type Src (WT)
T2 sequence: KDASQRRRSLEPAENVH

In the case of “S12A: control Src 9-25 peptide with serine 12 replaced by alanine (KDAAQRRRSLEPAENVH)”, the “Recognition by phospho-PKA substrate antibody after PKA kinase assay” value [1] is reported as “recognized”.

epidermal growth factor [EGF] was tested, and the “Activation of wild type Src and SrcS17A by growth factor” value (Src) was “activated both wild type Src and SrcS17A equally” and the “Stimulation of cell growth” value (Src++ and SYF cells) was “stimulated SYF cell growth”.

COc1cccc(-c2cc(=O)c3ccccc3o2)c1N [PD98059] was tested, and the “PDGF stimulation of proliferation in presence of MEK inhibitor” value (Src++ and SYF cells; Src++ and SYF cells, 10 μM) was “dependent on ERK signaling” and the “Effect on PDGF- and EGF-stimulated SYF cell growth” value (Src++ and SYF cells; transfected SYF cells, pretreatment) was “blocked”.

platelet-derived growth factor [PDGF] was tested, and the “Activation of wild type Src and SrcS17A by growth factor” value (Src) was “activated both wild type Src and SrcS17A equally” and the “Stimulation of cell growth” value (Src++ and SYF cells) was “stimulated SYF cell growth”.

In the case of prostaglandin E [PGE1], the “Activation of endogenous Rap1” value (Rap1) is reported as “activated Rap1”.

For purified catalytic subunit of PKA, the “phosphorylation of spotted peptide, detected with the phospho-PKA substrate antibody” value [2] was “Only the peptides containing Ser17 and adjacent arginines (WT and S12A) were recognized by the antibody, consistent with the consensus PKA recognition motif” and the “phosphorylation of spotted peptide, detected with the phospho-PKA substrate antibody” value [3] was “Only the peptides containing Ser17 and adjacent arginines (WT and S12A) were recognized by the antibody, consistent with the consensus PKA recognition motif”.

In the case of “KDASQRRRSLEPAENVH (listed as Homo sapiens) [WT, peptide identical to amino acids 9-25 of wild-type Src]”, the “Recognition by phospho-PKA substrate antibody after PKA kinase assay” value [1] is reported as “recognized”.
